Tests used:
[1] = drinking water pH 6.0 with 10 mM QCP, 2 months, standard chow or sugar low diet
Excerpt: The body weight development with and without peptide treatment is compared over 2 months. […] In corresponding experiments, rabbits are to be employed.

rbSGLT1 = molecular target: T1, rbSGLT1 (Oryctolagus cuniculus, UniProt P11170); experiment: rbSGLT1 expressed [14C]AMG uptake in oocytes after peptide injection; assay type: cell-based, rabbit; conditions: 50 nl containing 3 mM of each peptide, 30 min, 50 μM [14C]AMG; compared with hSGLT1
T1 construct: expressed in transfected cells; host or cells: Xenopus laevis oocytes (cRNA injection)
T1 sequence (P11170 1-662): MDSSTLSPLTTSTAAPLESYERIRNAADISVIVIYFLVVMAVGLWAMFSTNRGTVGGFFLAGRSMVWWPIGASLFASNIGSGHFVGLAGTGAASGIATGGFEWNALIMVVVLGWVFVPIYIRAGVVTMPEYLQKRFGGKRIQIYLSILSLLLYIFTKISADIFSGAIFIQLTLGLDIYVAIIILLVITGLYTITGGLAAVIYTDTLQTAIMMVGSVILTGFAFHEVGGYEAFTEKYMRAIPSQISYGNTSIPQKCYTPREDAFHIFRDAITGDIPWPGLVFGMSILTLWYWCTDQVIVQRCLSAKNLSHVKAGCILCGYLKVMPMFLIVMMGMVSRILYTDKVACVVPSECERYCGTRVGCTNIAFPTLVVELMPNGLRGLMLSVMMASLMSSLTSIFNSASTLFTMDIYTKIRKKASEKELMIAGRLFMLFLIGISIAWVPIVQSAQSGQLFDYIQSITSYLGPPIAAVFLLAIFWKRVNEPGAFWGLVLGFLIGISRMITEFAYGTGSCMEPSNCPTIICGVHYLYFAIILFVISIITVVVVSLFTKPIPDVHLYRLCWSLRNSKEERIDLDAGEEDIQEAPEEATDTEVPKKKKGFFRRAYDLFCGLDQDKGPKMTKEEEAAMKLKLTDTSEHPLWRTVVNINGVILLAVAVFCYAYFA
Description: (§1) The oocytes were incubated for three days at 16° C. in ORi buffer (in mM: 5 HEPES-Tris, pH 7.4, 100 NaCl, 3 KCl, 2 CaCl2, and 1 MgCl2). […] The oocytes were superfused with Ori buffer titrated to pH 6.5, the membrane potential of the oocytes was clamped to −40 mV, and inward current induced by superfusion with Ori buffer (pH 6.5) containing 5 mM of a control dipeptide or 5 mM of the tested tripeptide was measured. • (D) Expression and Purification of hRS1
To develop drugs on the basis of the identified peptides animal models are required.

SGLT1 = SGLT1 (Mus musculus, UniProt Q8C3K6); conditions: 60 min pre-incubation, pH 6.5, 3 mM QCP, 0.1 mM D-glucose
Description: Walls of small intestinal mucosa from mice are inserted into an Ussing chamber and the SGLT1 mediated transepitehila currents are measured that are induced by addition of 0.1 mM D-glucose to the mucosal side. […] After washing glucose-induced transepithelial currents are measured.

hOCT2 = hOCT2 (Homo sapiens, UniProt O15244); conditions: intracellular AMG 0.1 mM, <0.01 mM or 10 mM
Description: Corresponding measurements were performed in the presence of intracellular AMG concentrations of 0.1 mM, <0.01 mM or 10 mM.

[2] = system: sodium dependent amino acid transporters; conditions: 60 min, pH 6.5, 3 mM QCP; 10 mM amino acids
Description: Walls of small intestinal mucosa from mice are inserted into an Ussing chamber and transepitehial currents are measured that are induced by addition of 10 mM of various amino acids to the mucosal side.

hSGLT1 [3] = molecular target: T2, hSGLT1 (Homo sapiens, UniProt P13866); experiment: hSGLT1 expressed [14C]AMG uptake in Xenopus oocytes after injection of hRS1 protein or peptides; assay type: cell-based
T2 construct: expressed in transfected cells; host or cells: Xenopus laevis oocytes (cRNA injection)
T2 sequence (P13866 1-664): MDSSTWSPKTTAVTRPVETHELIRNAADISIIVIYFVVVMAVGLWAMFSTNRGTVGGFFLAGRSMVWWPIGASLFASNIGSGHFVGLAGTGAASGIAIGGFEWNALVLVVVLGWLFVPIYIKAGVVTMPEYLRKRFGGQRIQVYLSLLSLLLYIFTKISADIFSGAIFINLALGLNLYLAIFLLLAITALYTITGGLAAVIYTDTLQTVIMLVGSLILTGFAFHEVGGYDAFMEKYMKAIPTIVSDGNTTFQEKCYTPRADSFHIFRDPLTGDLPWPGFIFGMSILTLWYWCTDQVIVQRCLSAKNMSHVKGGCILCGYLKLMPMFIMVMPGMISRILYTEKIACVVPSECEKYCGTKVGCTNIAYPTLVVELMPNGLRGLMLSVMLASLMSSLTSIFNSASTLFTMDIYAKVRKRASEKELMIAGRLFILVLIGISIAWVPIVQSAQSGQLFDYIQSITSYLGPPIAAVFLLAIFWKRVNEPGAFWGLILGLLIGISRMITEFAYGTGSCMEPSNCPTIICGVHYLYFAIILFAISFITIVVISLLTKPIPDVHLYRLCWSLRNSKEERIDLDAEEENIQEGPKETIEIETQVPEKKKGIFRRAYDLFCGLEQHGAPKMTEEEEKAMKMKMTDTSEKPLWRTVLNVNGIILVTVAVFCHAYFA

hPEPT1 = molecular target: T3, hPEPT1 (Homo sapiens, UniProt P46059); experiment: Electrogenic peptide transport by hPEPT1 in oocytes, two-electrode voltage clamp; assay type: cell-based; conditions: pH 6.5
T3 construct: expressed in transfected cells; host or cells: Xenopus laevis oocytes (30 ng cRNA per oocyte)
T3 sequence (P46059 1-708): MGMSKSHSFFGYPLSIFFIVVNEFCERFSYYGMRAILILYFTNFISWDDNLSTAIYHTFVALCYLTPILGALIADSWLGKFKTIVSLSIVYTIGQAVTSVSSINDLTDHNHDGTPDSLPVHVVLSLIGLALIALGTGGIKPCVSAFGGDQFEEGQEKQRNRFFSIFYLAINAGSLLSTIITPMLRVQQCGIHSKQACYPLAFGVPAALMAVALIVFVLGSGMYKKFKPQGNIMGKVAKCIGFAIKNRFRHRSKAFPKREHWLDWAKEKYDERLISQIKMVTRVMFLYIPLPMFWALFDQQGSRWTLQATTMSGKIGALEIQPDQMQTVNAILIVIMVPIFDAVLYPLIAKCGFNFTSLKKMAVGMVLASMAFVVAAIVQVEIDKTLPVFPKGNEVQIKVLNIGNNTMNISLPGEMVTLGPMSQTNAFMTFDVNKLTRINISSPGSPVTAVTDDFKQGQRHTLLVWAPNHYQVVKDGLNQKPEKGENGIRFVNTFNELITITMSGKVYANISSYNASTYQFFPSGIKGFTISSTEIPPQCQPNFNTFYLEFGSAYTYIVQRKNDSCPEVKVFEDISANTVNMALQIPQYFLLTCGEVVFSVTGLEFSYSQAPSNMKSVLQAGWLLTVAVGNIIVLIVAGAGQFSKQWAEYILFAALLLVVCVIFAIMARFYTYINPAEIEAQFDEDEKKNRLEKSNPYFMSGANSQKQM
Description: as §1

hSGLT1 [4] = molecular target: T2, hSGLT1; experiment: [14C]AMG uptake in oocytes after incubation with tripeptide in the medium; assay type: cell-based; conditions: pH 6.5
Description: In a different experimental setup, oocytes were injected with SGLT1 cRNA (2.5 ng per oocyte) or with hSGLT1 cRNA (2.5 ng per oocyte) plus hPEPT1 cRNA (10 ng per oocyte) and the oocytes were incubated 3 days for expression. Thereafter the oocytes were incubated 30 min with Ori buffer adjusted to pH 6.5 or with Ori buffer adjusted to pH 6.5 containing 3 mM of the tested tripeptide. Thereafter oocytes were washed with Ori buffer (pH 7.4) and uptake of [^14C]AMG was measured. • (F) Measurements of [^14C]AMG Uptake
Uptake measurements were performed as described (Veyhl (2003), J. Membrane Biol., 196, 71-81). Oocytes were incubated for 15 min at room temperature in ORi buffer containing 50 μM [^14C]AMG without or with 100 μM of the SGLT1 inhibitor phlorizin. The uptake was blocked and oocytes were washed with ice cold Ori buffer containing 100 μM phlorizin. Radioactivity in the oocytes was measured by liquid scintillation counting.
Thereafter the oocytes were washed with neutral Ori buffer and the hSGLT1 expressed uptake of 50 μM [^14C]AMG was measured (FIG. 7). […] Incubation of oocytes expressing hSGLT1 plus hPEPT1 with PCQ had no effect on the expressed uptake of [^14C]AMG.

Sequence of SGLT1 (Q8C3K6 whole entry): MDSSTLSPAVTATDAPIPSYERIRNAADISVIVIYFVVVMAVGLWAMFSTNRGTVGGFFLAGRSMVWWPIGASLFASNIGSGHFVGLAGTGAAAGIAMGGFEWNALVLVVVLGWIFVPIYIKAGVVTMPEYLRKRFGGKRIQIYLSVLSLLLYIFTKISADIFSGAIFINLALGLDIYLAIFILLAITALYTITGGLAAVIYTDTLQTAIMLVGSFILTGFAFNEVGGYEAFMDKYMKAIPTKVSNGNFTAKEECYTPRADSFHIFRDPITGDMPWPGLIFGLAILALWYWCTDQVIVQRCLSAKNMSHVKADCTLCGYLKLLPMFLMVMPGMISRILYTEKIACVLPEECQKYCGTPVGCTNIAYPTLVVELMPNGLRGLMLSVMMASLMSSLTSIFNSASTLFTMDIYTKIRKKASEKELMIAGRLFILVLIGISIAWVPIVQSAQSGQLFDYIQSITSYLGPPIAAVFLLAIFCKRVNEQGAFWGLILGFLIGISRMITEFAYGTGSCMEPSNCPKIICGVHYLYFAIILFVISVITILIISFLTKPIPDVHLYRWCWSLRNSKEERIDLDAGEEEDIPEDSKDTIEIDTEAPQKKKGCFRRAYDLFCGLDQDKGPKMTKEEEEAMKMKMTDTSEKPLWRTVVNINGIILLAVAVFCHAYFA
Sequence of hOCT2 (O15244 whole entry): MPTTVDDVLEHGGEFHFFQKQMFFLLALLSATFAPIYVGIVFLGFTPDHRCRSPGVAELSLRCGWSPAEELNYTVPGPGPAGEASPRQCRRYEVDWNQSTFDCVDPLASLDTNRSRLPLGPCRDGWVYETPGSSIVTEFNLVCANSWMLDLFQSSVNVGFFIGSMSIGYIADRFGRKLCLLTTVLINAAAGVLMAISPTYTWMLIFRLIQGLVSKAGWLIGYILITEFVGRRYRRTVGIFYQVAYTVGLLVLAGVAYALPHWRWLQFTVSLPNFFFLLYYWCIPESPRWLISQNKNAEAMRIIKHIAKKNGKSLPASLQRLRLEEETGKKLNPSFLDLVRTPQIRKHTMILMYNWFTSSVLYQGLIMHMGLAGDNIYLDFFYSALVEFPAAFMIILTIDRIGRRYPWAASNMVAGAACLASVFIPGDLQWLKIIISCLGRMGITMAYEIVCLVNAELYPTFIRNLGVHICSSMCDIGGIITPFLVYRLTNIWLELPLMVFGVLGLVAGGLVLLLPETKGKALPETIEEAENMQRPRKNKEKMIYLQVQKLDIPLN

## Glutamine-Cysteine-Proline [QCP]
[1]
  body weight after feeding: body weight is reduced
rbSGLT1
  effect on glucose uptake expressed by rbSGLT1: same effect
SGLT1
  transepithelial glucose flux: inhibits transepithelial glucose flux
hOCT2
  hOCT2 expressed [14C]TEA uptake after injection: appears not to be inhibited
[2]
  transepithelial flux of amino acids: inhibits transepithelial flux of amino acids
hSGLT1 [3]
  inhibition of AMG uptake in the absence of BTXB: inhibited
  inhibition of AMG uptake in the presence of BTXB: no significant inhibition
  inhibition of glucose uptake expressed by hSGLT1: about 50%
  inhibition of hSGLT1 expressed AMG uptake: 35-40%
  inhibition of hSGLT1 expressed AMG uptake after stimulation of protein kinase C: not changed
  inhibition of hSGLT1 expressed AMG uptake with coexpressed dominant negative mutant of dynamin I: not changed
  inhibition of hSGLT1 expressed uptake of AMG after 3 h: 60%
  inhibition of hSGLT1 expressed uptake of AMG after 5 h: about 40%
  inhibition of hSGLT1 expressed uptake of AMG after 10 h: 20-30%
  inhibition of hSGLT1 in dependence of intracellular monosaccharide concentration: inhibits hSGLT1 at low or high concentrations of intracellular monosaccharides
  inhibitory effect on expression of hSGLT1 when the exocytotic pathway is blocked: could be prevented
  intracellular concentration of QCP giving 35-40% inhibition of hSGLT1 expressed glucose uptake: below 5 nM
hPEPT1
  inward current in control oocytes not injected with hPEP1-cRNA: no inward currents
  inward current induced in oocytes expressing hPEPT1: significant inward currents
hSGLT1 [4]
  effect on AMG uptake in oocytes in which hSGLT1 but not hPEPT1 was expressed: no effect
  inhibition of [14C]AMG uptake in oocytes expressing hSGLT1 plus hPEPT1: about 50%
